pIC50: −log10 of the molar value.
Key:
[1] = target: STAT3 (Homo sapiens, UniProt P40763); details: cited from earlier work
[2] = tested on: ERBB2; details: cited from earlier work
[3] = tested on: human airway microvasculature endothelial cells; assay: Endothelial cell activation assessed by expression of Vcam1 (CD106); assay type: cell-based; details: IL-13 challenge of human lung endothelial cells
Source text: Given the robust inflammatory response triggered by xenografts of COPD clone libraries, the inventors asked if this inflammatory activity was a function of one or more of the constituent clone types. Using pathway enrichment analysis algorithms for the gene expression profiles of the four clone types, the multiple inflammatory pathways highlighted in clones of Cluster 4 was striking including Antigen Presentation, Interferon Signaling, Graft-vs-Host responses, and Dendritic Cell Maturation among others, and their relative absence from clones of Clusters 1, 2, and 3 (FIG. 5A; FIG. 12A). The inventors tested media conditioned by clones of Clusters 1-4 for their ability to trigger phase I and II activation of human airway microvasculature endothelial cells, an essential step in leukocyte recruitment (Filippi, 2016). […] In this same assay media conditioned by Cluster 2 (GCM) or Cluster 3 (SCM) clones, respectively, yielded 4- and 10-fold inductions of VCAM1, and while media from Cluster 4 (iSCM) clones induced Vcam1 by 60-fold (FIG. 12B).

Chain of STAT3 (P40763 whole entry): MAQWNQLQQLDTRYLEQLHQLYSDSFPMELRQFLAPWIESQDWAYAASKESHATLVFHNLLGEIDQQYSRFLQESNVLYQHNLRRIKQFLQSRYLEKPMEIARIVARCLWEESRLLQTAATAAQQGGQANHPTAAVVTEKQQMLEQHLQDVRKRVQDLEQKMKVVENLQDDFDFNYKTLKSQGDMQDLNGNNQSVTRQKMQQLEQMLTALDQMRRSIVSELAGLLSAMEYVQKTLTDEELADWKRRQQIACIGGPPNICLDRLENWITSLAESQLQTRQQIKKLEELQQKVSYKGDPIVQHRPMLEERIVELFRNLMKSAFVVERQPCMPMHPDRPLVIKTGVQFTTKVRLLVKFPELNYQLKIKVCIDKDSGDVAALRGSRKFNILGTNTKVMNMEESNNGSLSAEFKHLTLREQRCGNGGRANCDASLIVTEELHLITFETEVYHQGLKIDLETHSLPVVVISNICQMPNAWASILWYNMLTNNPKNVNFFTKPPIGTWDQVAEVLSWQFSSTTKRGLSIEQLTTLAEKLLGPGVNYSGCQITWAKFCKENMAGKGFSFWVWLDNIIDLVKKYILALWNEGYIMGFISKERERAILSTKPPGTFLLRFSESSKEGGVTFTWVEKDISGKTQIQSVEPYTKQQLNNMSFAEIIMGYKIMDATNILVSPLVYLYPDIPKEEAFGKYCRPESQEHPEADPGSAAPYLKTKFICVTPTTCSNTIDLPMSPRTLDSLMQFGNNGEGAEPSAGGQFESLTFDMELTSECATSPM

## O=[N+]([O-])c1ccc2c(c1)S(=O)(=O)C=C2 [Stattic]
[1]; cell-free assays, read-out: IC50 of STAT3 activation and nuclear translocation
  pIC50: 5.29
[1]
  selectivity over STAT1: highly selectivity over STAT1

## C=CC(=O)Nc1cccc(Sc2nc(Nc3ccc(N4CCN(C)CC4)cc3)ncc2Cl)c1 [WZ8040]
[2]
  inhibition of ERBB2 phosphorylation: does not inhibit

## IL-13: Human IL-13 Recombinant Protein
[3]
  induction of Vcam1: 30 fold

Source: patent publication US20210401987A1, “METHODS AND COMPOSITIONS FOR TREATING INFLAMMATORY AND FIBROTIC PULMONARY DISORDERS” (University of Houston System, priority 2020, published 2021)
